Laboratory results taken from paper PMC8838521, “Antimicrobial, Cytotoxic and Mutagenic Activity of Gemini QAS Derivatives of 1,4:3,6-Dianhydro-L-iditol” (Molecules, 2022).
Several values for one entry are separate records, joined by “and”; a condition that tells them apart may be missing. Identical values can stand only once. Entries after “also recorded” stand apart in the source; their conditions may differ. Like-named read-outs stand apart in the source and are kept apart here.

Key:
[1] = Solubility observed during assays; format: physicochemical; details: for Solubility in water and DMSO: for Ames test; for Solubility in water: observed during antimicrobial assays, DMSO used for solubilisation
[2] = tested on: S. aureus clinical isolates; test: Antistaphylococcal activity, microdilution MIC, clinical isolates; format: cell-based; details: Staphylococcus aureus
Method: (§1) The antimicrobial potential of the tested agents was evaluated against two reference strains of bacteria: Staphylococcus aureus ATCC 25923 and Escherichia coli K12, two reference strains of pathogenic yeasts, Candida albicans ATCC10231 and Candida glabrata DSMZ11226, as well as 20 strains of clinical isolates of S. aureus collected from patients with skin and soft tissue infections (n = 8) and strains derived from subclinical bovine mastitis milk samples (n = 12). Four of these strains, two isolated from human infections and two isolated from bovine mastitis, were classified as MRSA (Methicillin-resistant Staphylococcus aureus). All of them were mecA positive and their methicillin resistance was confirmed with the disc diffusion assay. The remaining 16 strains were MSSA (Methicillin-sensitive Staphylococcus aureus). The assays were performed using a serial, two-fold dilution method in 96-well microtiter plates under conditions recommended by the Clinical and Laboratory Standards Institute (CLSI, Pittsburgh, PA, USA). The aim of this procedure was the determination of the MIC parameter (Minimum Inhibitory Concentration)—the minimum concentration of a tested agent capable to inhibit the growth of a specified strain of microorganism. The agents were solubilized in deionized, sterile water to a final concentration of […]. Subsequently, solutions were mixed (1:1 (v/v)) with 2 × concentrated liquid medium, Mueller-Hinton Broth 2—cation adjusted (MHB2) for evaluation of antibacterial activity and RPMI in the case of evaluation of the antifungal activity. […] Subsequently, the solutions were mixed with MHB2 or RPMI medium to get the final concentration of 8.192 mg/mL (8192 µg/mL). In the next step, the serial, two-fold dilutions of the tested agents (over the range of concentrations from 8192 to 8 µg/mL for reference strains of bacteria and yeasts and from 512 to 1.0 µg/mL for clinical isolates of S. aureus) were prepared in 96-well microtitration plates in the final volume of 100 μL of the appropriate medium.
(§2) The pure bacterial cultures of (both the reference and clinical strains) were grown on the Mueller-Hinton Agar (MHA) for 18–24 h at 37 °C. A small amount of the biomass of the culture of each strain of microorganisms was suspended in the sterile PBS (phosphate buffered saline, pH 7.4 at 25 °C, purchased from Sigma) solution to get an optical density OD600 = 0.13 (equal to the cells concentration approximately 1 × 10^8 CFU/mL). The obtained suspensions of the cells were next diluted 1:100 (v/v) in the MHB2 medium. One hundred µL of the cells’ suspension was finally loaded into the wells of plates prepared in advance, which contained 100 µL of two-fold dilutions of the tested agents (the final concentration of the bacterial cells in all wells was approximately 5 × 10^5 CFU/mL).
(§3) The pure cultures of yeast strains were grown on the Sabouraud Dextrose Agar (SDA) for 18–24 h at 37 °C. Suspensions of the microorganisms were prepared by taking one loop of pure culture into sterile water and adjusting optical density to 0.1 at 660 nm and further 50-fold dilution in RPMI 1640 medium resulting in cells concentration of approximate 2 × 10^4 CFU/mL. One hundred μL of that suspension was inoculated to the wells of the microtitration plate containing appropriate dilutions of the agents. The positive growth control of each strain (both bacteria and yeasts) was performed in the wells without the tested substances. The negative control containing only the media was included in each assay. Microtiter plates were incubated at 37 °C for 24 h. Following the incubation period, determination of the MIC values of the tested agents was carried out by measuring the absorbance at 531 nm using a Victor^3 microplate reader (Perkin Elmer, Inc., Waltham, MA, USA). The lowest concentration of the agent causing inhibition of growth equal to or higher than 90% (MIC90) of growth control was taken as the MIC value. Each test was repeated three times. […]

[3] = tested on: Candida glabrata DSMZ 11226; test: Antimicrobial activity, microdilution MIC, C. glabrata; format: cell-based; details: Nakaseomyces glabratus, DSMZ11226, 24 h, MIC90, 24 h, RPMI; read-out: MIC C. glabrata DSMZ 11226
Method: as §1
The pure cultures of yeast strains were grown on the Sabouraud Dextrose Agar (SDA) for 18–24 h at 37 °C. Suspensions of the microorganisms were prepared by taking one loop of pure culture into sterile water and adjusting optical density to 0.1 at 660 nm and further 50-fold dilution in RPMI 1640 medium resulting in cells concentration of approximate 2 × 10^4 CFU/mL. One hundred μL of that suspension was inoculated to the wells of the microtitration plate containing appropriate dilutions of the agents. The positive growth control of each strain (both bacteria and yeasts) was performed in the wells without the tested substances. The negative control containing only the media was included in each assay. Microtiter plates were incubated at 37 °C for 24 h. Following the incubation period, determination of the MIC values of the tested agents was carried out by measuring the absorbance at 531 nm using a Victor^3 microplate reader (Perkin Elmer, Inc., Waltham, MA, USA). The lowest concentration of the agent causing inhibition of growth equal to or higher than 90% (MIC90) of growth control was taken as the MIC value. Each test was repeated three times.

[4] = tested on: Escherichia coli K12; test: Antimicrobial activity, microdilution MIC, E. coli; format: cell-based; details: Escherichia coli, K12, 24 h, MIC90, 24 h, MHB2; read-out: MIC E. coli K12
Method: as §1, §2, §3

[5] = tested on: Staphylococcus aureus ATCC 25923; test: Antimicrobial activity, microdilution MIC, S. aureus reference strain; format: cell-based; details: Staphylococcus aureus, ATCC25923, 24 h, MIC90, 24 h, MHB2; read-out: MIC S. aureus ATCC 25923
Method: as §1, §2, §3

[6] = 20 clinical isolates, typical value, read-out: MIC against S. aureus clinical isolates, in general
[7] = isolate 1, human infection, MSSA, read-out: MIC S. aureus isolate 1
[8] = isolate 2, human infection, MSSA, read-out: MIC S. aureus isolate 2
[9] = isolate 3, human infection, MSSA, read-out: MIC S. aureus isolate 3
[10] = isolate 4, human infection, MSSA, read-out: MIC S. aureus isolate 4
[11] = isolate 5, human infection, MSSA, read-out: MIC S. aureus isolate 5
[12] = isolate 6, human infection, MSSA, read-out: MIC S. aureus isolate 6
[13] = isolate 7, human infection, MRSA, read-out: MIC S. aureus isolate 7
[14] = isolate 8, human infection, MRSA, read-out: MIC S. aureus isolate 8
[15] = isolate 9, bovine mastitis, MSSA, read-out: MIC S. aureus isolate 9
[16] = isolate 10, bovine mastitis, MSSA, read-out: MIC S. aureus isolate 10
[17] = isolate 11, bovine mastitis, MSSA, read-out: MIC S. aureus isolate 11
[18] = isolate 12, bovine mastitis, MSSA, read-out: MIC S. aureus isolate 12
[19] = isolate 13, bovine mastitis, MSSA, read-out: MIC S. aureus isolate 13
[20] = isolate 14, bovine mastitis, MSSA, read-out: MIC S. aureus isolate 14
[21] = isolate 15, bovine mastitis, MSSA, read-out: MIC S. aureus isolate 15
[22] = isolate 16, bovine mastitis, MSSA, read-out: MIC S. aureus isolate 16
[23] = isolate 17, bovine mastitis, MSSA, read-out: MIC S. aureus isolate 17
[24] = isolate 18, bovine mastitis, MSSA, read-out: MIC S. aureus isolate 18
[25] = isolate 19, bovine mastitis, MRSA, read-out: MIC S. aureus isolate 19
[26] = isolate 20, bovine mastitis, MRSA, read-out: MIC S. aureus isolate 20

| MIC [2, 6] [µg/mL] | MIC [2, 7] | MIC [2, 8] | MIC [2, 9] | MIC [2, 10] | MIC [2, 11] | MIC [2, 12] | MIC [2, 13] | MIC [2, 14] | MIC [2, 15] | MIC [2, 16] | MIC [2, 17] | MIC [2, 18] | MIC [2, 19] | MIC [2, 20] | MIC [2, 21] | MIC [2, 22] | MIC [2, 23] | SMILES | Solubility in water and DMSO [1] | Solubility in water [1] | other results |
| --- | --- | --- | --- | --- | --- | --- | --- | --- | --- | --- | --- | --- | --- | --- | --- | --- | --- | --- | --- | --- | --- |
| 8 | 8 µg/mL and 10 µM | 8 µg/mL and 10 µM | 4 µg/mL and 5 µM | 8 µg/mL and 10 µM | 8 µg/mL and 10 µM | 8 µg/mL and 10 µM | 4 µg/mL and 5 µM | 8 µg/mL and 10 µM | 8 µg/mL and 10 µM | 8 µg/mL and 10 µM | 8 µg/mL and 10 µM | 8 µg/mL and 10 µM | 8 µg/mL and 10 µM | 4 µg/mL and 5 µM | 8 µg/mL and 10 µM | 8 µg/mL and 10 µM | 8 µg/mL and 10 µM | CCCCCCCCCC[N+](C)(C)C1COC2C1OCC2[N+](C)(C)CCCCCCCCCC [QAS 10, N,N’-(1,4:3,6-Dianhydro-2,5-dideoxy-L-iditol-2,5-diyl)-bis(N,N-dimethyl-N-decylammonium) Ditrifluoromethanesulfonate] | insufficient solubility in both water and DMSO | suppressed water solubility; also recorded: lower solubility in water | MIC [2, 24]: 8 µg/mL and 10 µM; MIC [2, 25]: 8 µg/mL and 10 µM; MIC [2, 26]: 8 µg/mL and 10 µM; MIC ([2]; more susceptible strains among 20 isolates, read-out: MIC of more susceptible S. aureus clinical strains): 4 µg/mL; MIC [3]: 16 µg/mL and 20 µM; MIC [4]: 32 µg/mL and 40 µM; MIC [5]: 8 µg/mL and 10 µM |
| 64 | 64 µg/mL and 88 µM | 64 µg/mL and 88 µM | 64 µg/mL and 88 µM | 128 µg/mL and 176 µM | 64 µg/mL and 88 µM | 64 µg/mL and 88 µM | 64 µg/mL and 88 µM | 64 µg/mL and 88 µM | 64 µg/mL and 88 µM | 64 µg/mL and 88 µM | 64 µg/mL and 88 µM | 64 µg/mL and 88 µM | 64 µg/mL and 88 µM | 64 µg/mL and 88 µM | 64 µg/mL and 88 µM | 64 µg/mL and 88 µM | 64 µg/mL and 88 µM | CCCCCCCC[N+](C)(C)C1COC2C1OCC2[N+](C)(C)CCCCCCCC (centres unmarked) [QAS 9] | insufficient solubility in both water and DMSO | suppressed water solubility; also recorded: lower solubility in water | MIC [2, 24]: 64 µg/mL and 88 µM; MIC [2, 25]: 64 µg/mL and 88 µM; MIC [2, 26]: 64 µg/mL and 88 µM; MIC [3]: 1020 µg/mL and 1410 µM; MIC [4]: 2050 µg/mL and 2820 µM; MIC [5]: 128 µg/mL and 176 µM |
